Experimental data: the supplement of paper PMC10627819

How the values were obtained:
Assay in all cases: Bliss interaction score (quartile over a dose matrix) (fitness difference); higher = more antagonism (negative = synergy)
[1] = tested on: B. subtilis 168
In short: (§1)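 Fitness was defined as normalised growth: OD595 at the start of stationary phase divided by the plate's robust no-drug mean and capped at 1. Single-drug fitness was inferred from combination measurements. The Bliss score is observed fitness minus the product of the single-drug values, summarised by quartiles across technical, biological and donor/recipient replicates.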

[2] = tested on: S. aureus DSM 20231
In short: as §1

[3] = tested on: S. pneumoniae D39V
In short: as §1

[4] = tested on: S. aureus Newman
In short: as §1
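Also: first quartile when negative (synergy) and third quartile when positive (antagonism).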

SMILES	Bliss interaction score [1]	Bliss interaction score [2]	Bliss interaction score [3]	Bliss interaction score [4]
CC[C@H]1OC(=O)[C@H](C)[C@@H](O[C@H]2C[C@@](C)(OC)[C@@H](O)[C@H](C)O2)[C@H](C)[C@@H](O[C@@H]2O[C@H](C)C[C@H](N(C)C)[C@H]2O)[C@](C)(O)C[C@@H](C)C(=O)[C@H](C)[C@@H](O)[C@]1(C)O [Erythromycin] + CN1C2=CC=CC=C2N=C3C1=CC=CC3=O [Pyocyanin]	0.0449	-0.0317	-0.0454	-0.051
CC[C@H]1OC(=O)[C@H](C)[C@@H](O[C@H]2C[C@@](C)(OC)[C@@H](O)[C@H](C)O2)[C@H](C)[C@@H](O[C@@H]2O[C@H](C)C[C@H](N(C)C)[C@H]2O)[C@](C)(O)C[C@@H](C)C(=O)[C@H](C)[C@@H](O)[C@]1(C)O [Erythromycin] + CN(C)C(=O)C(CCN1CCC(O)(c2ccc(Cl)cc2)CC1)(c1ccccc1)c1ccccc1 [Loperamide]	0.0381	0.0888	0.116	-0.039
CC[C@H]1OC(=O)[C@H](C)[C@@H](O[C@H]2C[C@@](C)(OC)[C@@H](O)[C@H](C)O2)[C@H](C)[C@@H](O[C@@H]2O[C@H](C)C[C@H](N(C)C)[C@H]2O)[C@](C)(O)C[C@@H](C)C(=O)[C@H](C)[C@@H](O)[C@]1(C)O [Erythromycin] + CN(C)c1cc(NC(=O)CNC(C)(C)C)c(O)c2c1C[C@H]1C[C@H]3[C@H](N(C)C)C(O)=C(C(N)=O)C(=O)[C@@]3(O)C(O)=C1C2=O [Tigecycline]	-0.0505	-0.0257	-0.0975	-0.0253
CC[C@H]1OC(=O)[C@H](C)[C@@H](O[C@H]2C[C@@](C)(OC)[C@@H](O)[C@H](C)O2)[C@H](C)[C@@H](O[C@@H]2O[C@H](C)C[C@H](N(C)C)[C@H]2O)[C@](C)(O)C[C@@H](C)C(=O)[C@H](C)[C@@H](O)[C@]1(C)O [Erythromycin] + CN(N=O)C(=O)N[C@@H](C=O)[C@@H](O)[C@H](O)[C@H](O)CO [Streptozotocin]	-0.0271	-0.0271	-0.0459	-0.0533
CC[C@H]1OC(=O)[C@H](C)[C@@H](O[C@H]2C[C@@](C)(OC)[C@@H](O)[C@H](C)O2)[C@H](C)[C@@H](O[C@@H]2O[C@H](C)C[C@H](N(C)C)[C@H]2O)[C@](C)(O)C[C@@H](C)C(=O)[C@H](C)[C@@H](O)[C@]1(C)O [Erythromycin] + CN[C@@H]1[C@H](O)[C@H](NC)[C@H]2O[C@@]3(O)C(=O)C[C@@H](C)O[C@H]3O[C@@H]2[C@H]1O [Spectinomycin]	-0.093	-0.0696	-0.0547	-0.172
CC[C@H]1OC(=O)[C@H](C)[C@@H](O[C@H]2C[C@@](C)(OC)[C@@H](O)[C@H](C)O2)[C@H](C)[C@@H](O[C@@H]2O[C@H](C)C[C@H](N(C)C)[C@H]2O)[C@](C)(O)C[C@@H](C)C(=O)[C@H](C)[C@@H](O)[C@]1(C)O [Erythromycin] + CN[C@@H]1[C@H](O[C@H]2[C@H](O[C@H]3[C@H](O)[C@@H](O)[C@H](N=C(N)N)[C@@H](O)[C@@H]3N=C(N)N)O[C@@H](C)[C@]2(O)C=O)O[C@@H](CO)[C@H](O)[C@H]1O [Streptomycin]	0.0844	0.0256	-0.0481	-0.0695
CC[C@H]1OC(=O)[C@H](C)[C@@H](O[C@H]2C[C@@](C)(OC)[C@@H](O)[C@H](C)O2)[C@H](C)[C@@H](O[C@@H]2O[C@H](C)C[C@H](N(C)C)[C@H]2O)[C@](C)(O)C[C@@H](C)C(=O)[C@H](C)[C@@H](O)[C@]1(C)O [Erythromycin] + CN[C@H](CC(C)C)C(=O)N[C@H]1C(=O)N[C@@H](CC(N)=O)C(=O)N[C@H]2C(=O)N[C@H]3C(=O)N[C@H](C(=O)N[C@H](C(=O)O)c4cc(O)cc(O)c4-c4cc3ccc4O)[C@H](O)c3ccc(c(Cl)c3)Oc3cc2cc(c3O[C@@H]2O[C@H](CO)[C@@H](O)[C@H](O)[C@H]2O[C@H]2C[C@](C)(N)[C@H](O)[C@H](C)O2)Oc2ccc(cc2Cl)[C@H]1O [Vancomycin]	0.035	0.0298	0.0403	-0.0375
